Patent publication US10695315B2, “Composition comprising avermectin compounds without gelling agents” (Nestlé Skin Health SA, priority 2016, dated 2020)

Assay: Physical stability of the composition over time
Type: physicochemical
Conditions: in composition 2, over time (three months, 5° C. and RT)
Procedure: “Physical stability” means that the composition meets the acceptance criteria for appearance, physical attributes and functionality test (e.g. color, phase separation, dose delivery per actuation).
The table below represents physical stability of the composition 2 according to the invention at 5° C. and room temperature (RT) during three months.

ivermectin
Ivermectin solubilized state, crystals formation: remains solubilized over time, no crystals formation
